Patent publication US11702429B2, “mTORC modulators and uses thereof” (Aeovian Pharmaceuticals, Inc., priority 2019, dated 2023)

Columns and labels:
mTORC1 = biological target: T1, mTORC1 (Homo sapiens, UniProt P42345+P62942); assay: Inhibition assay for mTORC1: phosphorylation of pS6K at Thr389, AlphaLISA in PC3 cells; type: cell-based; conditions: read-out: pIC50 mTORC1 (converted)
T1 construct: endogenous in cells; host or cells: PC3 cells (human prostate adenocarcinoma)
Protocol: (§1) The IC50s of the inhibition of mTORC1 and mTORC2 were determined in vitro by determining the phosphorylation of pS6K at position Thr389 (mTORC1 inhibition) and pAkt at Ser473 (mTORC2 inhibition). In vitro studies were performed with AlphaLISA® technology using PC3 cells (Prostate Adenocarcinoma; Human (Homo sapiens)). The cells were seeded in 96 well plates and were treated for 24 hours with the different compounds. […] All analysis were performed using GraphPad Prism 7.0 (GraphPad Software, San Diego, USA).

mTORC2 = biological target: T2, mTORC2 (Homo sapiens, UniProt P42345+P62942); assay: Inhibition assay for mTORC2: phosphorylation of pAkt at Ser473, AlphaLISA in PC3 cells; type: cell-based; conditions: read-out: pIC50 mTORC2 (converted)
T2 construct: endogenous in cells; host or cells: PC3 cells (human prostate adenocarcinoma)
Protocol: as §1

T2 sequence (P62942 2-108 limits assumed, other chains not shown): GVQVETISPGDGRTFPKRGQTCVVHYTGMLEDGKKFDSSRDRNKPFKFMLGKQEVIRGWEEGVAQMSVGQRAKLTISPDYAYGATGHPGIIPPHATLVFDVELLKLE

IC50 (mTORC1) [nM]	IC50 (mTORC2) [nM]	Compound
< 0.316	1000 to 10000	COCCOC1C[C@@H]2CC[C@@H](C)[C@@](O)(O2)C(=O)C(=O)N2CCCCC2C(=O)O[C@H]([C@H](C)C[C@@H]2CC[C@@H](O)[C@H](OC)C2)CC(=O)[C@H](C)/C=C(\C)[C@@H](O)[C@@H](OC)C(=O)[C@H](C)C[C@H](C)/C=C/C=C/C=C/1C (some centres unmarked) [Compound 220]
< 0.316	1000 to 10000	CO[C@@H]1C[C@H](C[C@@H](C)[C@@H]2CC(=O)[C@H](C)/C=C(\C)[C@@H](O)[C@@H](OC)C(=O)[C@H](C)C[C@H](C)/C=C/C=C/C=C(\C)C(OCCCCO)C[C@@H]3CC[C@@H](C)[C@@](O)(O3)C(=O)C(=O)N3CCCCC3C(=O)O2)CC[C@H]1O (some centres unmarked) [Compound 221]
0.316 to 3.16	> 10000	CO[C@@H]1C[C@H](C[C@@H](C)[C@@H]2CC(=O)[C@H](C)/C=C(\C)[C@@H](O)[C@@H](OC)C(=O)[C@H](C)C[C@H](C)/C=C/C=C/C=C(\C)C(OC[C@@H](C)O)C[C@@H]3CC[C@@H](C)[C@@](O)(O3)C(=O)C(=O)N3CCCCC3C(=O)O2)CC[C@H]1O (some centres unmarked) [Compound 223]
0.316 to 3.16	> 10000	CO[C@@H]1C[C@H](C[C@@H](C)[C@@H]2CC(=O)[C@H](C)/C=C(\C)[C@@H](O)[C@@H](OC)C(=O)[C@H](C)C[C@H](C)/C=C/C=C/C=C(\C)C(OCCOCCO)C[C@@H]3CC[C@@H](C)[C@@](O)(O3)C(=O)C(=O)N3CCCCC3C(=O)O2)CC[C@H]1O (some centres unmarked) [Compound 224]
< 0.316	1000 to 10000	COCCCOC1C[C@@H]2CC[C@@H](C)[C@@](O)(O2)C(=O)C(=O)N2CCCCC2C(=O)O[C@H]([C@H](C)C[C@@H]2CC[C@@H](O)[C@H](OC)C2)CC(=O)[C@H](C)/C=C(\C)[C@@H](O)[C@@H](OC)C(=O)[C@H](C)C[C@H](C)/C=C/C=C/C=C/1C (some centres unmarked) [Compound 225]
0.316 to 3.16	> 10000	CO[C@@H]1C[C@H](C[C@@H](C)[C@@H]2CC(=O)[C@H](C)/C=C(\C)[C@@H](O)[C@@H](OC)C(=O)[C@H](C)C[C@H](C)/C=C/C=C/C=C(\C)C(OCC3CCOCC3)C[C@@H]3CC[C@@H](C)[C@@](O)(O3)C(=O)C(=O)N3CCCCC3C(=O)O2)CC[C@H]1O (some centres unmarked) [Compound 226]
< 0.316	> 10000	COCCOCCOC1C[C@@H]2CC[C@@H](C)[C@@](O)(O2)C(=O)C(=O)N2CCCCC2C(=O)O[C@H]([C@H](C)C[C@@H]2CC[C@@H](O)[C@H](OC)C2)CC(=O)[C@H](C)/C=C(\C)[C@@H](O)[C@@H](OC)C(=O)[C@H](C)C[C@H](C)/C=C/C=C/C=C/1C (some centres unmarked) [Compound 227]
< 0.316	< 1000	COC1C[C@@H]2CC[C@@H](C)[C@@](O)(O2)C(=O)C(=O)N2CCCCC2C(=O)O[C@H]([C@H](C)C[C@@H]2CC[C@@H](OCCCCN3CCOCC3)[C@H](OC)C2)CC(=O)[C@H](C)/C=C(\C)[C@@H](O)[C@@H](OC)C(=O)[C@H](C)C[C@H](C)/C=C/C=C/C=C/1C (some centres unmarked) [Compound 300]
< 0.316	< 1000	COCO[C@@H]1CC[C@@H](C[C@@H](C)[C@@H]2CC(=O)[C@H](C)/C=C(\C)[C@@H](O)[C@@H](OC)C(=O)[C@H](C)C[C@H](C)/C=C/C=C/C=C(\C)C(OC)C[C@@H]3CC[C@@H](C)[C@@](O)(O3)C(=O)C(=O)N3CCCCC3C(=O)O2)C[C@H]1OC (some centres unmarked) [Compound 301]
< 0.316	< 1000	COC1C[C@@H]2CC[C@@H](C)[C@@](O)(O2)C(=O)C(=O)N2CCCCC2C(=O)O[C@H]([C@H](C)C[C@@H]2CC[C@@H](OCc3ccccc3)[C@H](OC)C2)CC(=O)[C@H](C)/C=C(\C)[C@@H](O)[C@@H](OC)C(=O)[C@H](C)C[C@H](C)/C=C/C=C/C=C/1C (some centres unmarked) [Compound 305]
< 0.316	< 1000	COC1C[C@@H]2CC[C@@H](C)[C@@](O)(O2)C(=O)C(=O)N2CCCCC2C(=O)O[C@H]([C@H](C)C[C@@H]2CC[C@@H](n3ncnn3)[C@H](OC)C2)CC(=O)[C@H](C)/C=C(\C)[C@@H](O)[C@@H](OC)C(=O)[C@H](C)C[C@H](C)/C=C/C=C/C=C/1C (some centres unmarked) [Compound 307]
< 0.316	< 1000	COCCCO[C@@H]1CC[C@@H](C[C@@H](C)[C@@H]2CC(=O)[C@H](C)/C=C(\C)[C@@H](O)[C@@H](OC)C(=O)[C@H](C)C[C@H](C)/C=C/C=C/C=C(\C)C(OC)C[C@@H]3CC[C@@H](C)[C@@](O)(O3)C(=O)C(=O)N3CCCCC3C(=O)O2)C[C@H]1OC (stereo partly drawn) [Compound 308, (1R,9S,12S,15R,16E,18R,19R,21R,23S,24E,26E,28E,30S,32S,35R)-1,18-dihydroxy-19,30-dimethoxy-12-[(1R)-2-[(1S,3R,4R)-3-methoxy-4-(3-methoxypropoxy)cyclohexyl]-1-methyl-ethyl]-15,17,21,23,29,35-hexamethyl-11,36-dioxa-4-azatricyclo[30.3.1.0^4,9]hexatriaconta-16,24,26,28-tetraene-2,3,10,14,20-pentone]
< 0.316	< 1000	COC1CC2CCC(C)C(O)(O2)C(=O)C(=O)N2CCCCC2C(=O)OC(C(C)CC2CCC(OC(=O)C3(C)COC(C)(C)OC3)C(OC)C2)CC(=O)C(C)C=C(C)C(O)C(OC)C(=O)C(C)CC(C)C=CC=CC=C1C (centres unmarked) [Compound 309]

Continued, compound first:

Compound	IC50 (mTORC1) [nM]	IC50 (mTORC2) [nM]
CO[C@@H]1C[C@H](C[C@@H](C)[C@@H]2CC(=O)[C@H](C)/C=C(\C)[C@@H](O)[C@@H](OC)C(=O)[C@H](C)C[C@H](C)/C=C/C=C/C=C(\C)C(OC3CC3)C[C@@H]3CC[C@@H](C)[C@@](O)(O3)C(=O)C(=O)N3CCCCC3C(=O)O2)CC[C@H]1O (some centres unmarked) [Compound 209]	< 0.316	< 1000
CO[C@@H]1C[C@H](C[C@@H](C)[C@@H]2CC(=O)[C@H](C)/C=C(\C)[C@@H](O)[C@@H](OC)C(=O)[C@H](C)C[C@H](C)/C=C/C=C/C=C(\C)C(OCCCO)C[C@@H]3CC[C@@H](C)[C@@](O)(O3)C(=O)C(=O)N3CCCCC3C(=O)O2)CC[C@H]1O (some centres unmarked) [Compound 210]	0.316 to 3.16	< 1000
CO[C@@H]1C[C@H](C[C@@H](C)[C@@H]2CC(=O)[C@H](C)/C=C(\C)[C@@H](O)[C@@H](OC)C(=O)[C@H](C)C[C@H](C)/C=C/C=C/C=C(\C)C(OCCc3ccccc3)C[C@@H]3CC[C@@H](C)[C@@](O)(O3)C(=O)C(=O)N3CCCCC3C(=O)O2)CC[C@H]1O (some centres unmarked) [Compound 211]	< 0.316	< 1000
CO[C@@H]1C[C@H](C[C@@H](C)[C@@H]2CC(=O)[C@H](C)/C=C(\C)[C@@H](O)[C@@H](OC)C(=O)[C@H](C)C[C@H](C)/C=C/C=C/C=C(\C)C(c3cccn3C)C[C@@H]3CC[C@@H](C)[C@@](O)(O3)C(=O)C(=O)N3CCCCC3C(=O)O2)CC[C@H]1O (some centres unmarked) [Compound 212]	0.316 to 3.16	1000 to 10000
CO[C@@H]1C[C@H](C[C@@H](C)[C@@H]2CC(=O)[C@H](C)/C=C(\C)[C@@H](O)[C@@H](OC)C(=O)[C@H](C)C[C@H](C)/C=C/C=C/C=C(\C)C(OCCC3CCOCC3)C[C@@H]3CC[C@@H](C)[C@@](O)(O3)C(=O)C(=O)N3CCCCC3C(=O)O2)CC[C@H]1O (some centres unmarked) [Compound 213]	0.316 to 3.16	1000 to 10000
CO[C@@H]1C[C@H](C[C@@H](C)[C@@H]2CC(=O)[C@H](C)/C=C(\C)[C@@H](O)[C@@H](OC)C(=O)[C@H](C)C[C@H](C)/C=C/C=C/C=C(\C)C(OC[C@H](O)c3ccccc3)C[C@@H]3CC[C@@H](C)[C@@](O)(O3)C(=O)C(=O)N3CCCCC3C(=O)O2)CC[C@H]1O (some centres unmarked) [Compound 214]	< 0.316	1000 to 10000
CO[C@@H]1C[C@H](C[C@@H](C)[C@@H]2CC(=O)[C@H](C)/C=C(\C)[C@@H](O)[C@@H](OC)C(=O)[C@H](C)C[C@H](C)/C=C/C=C/C=C(\C)C(OCC(C)(C)O)C[C@@H]3CC[C@@H](C)[C@@](O)(O3)C(=O)C(=O)N3CCCCC3C(=O)O2)CC[C@H]1O (some centres unmarked) [Compound 216]	0.316 to 3.16	1000 to 10000
CO[C@@H]1C[C@H](C[C@@H](C)[C@@H]2CC(=O)[C@H](C)/C=C(\C)[C@@H](O)[C@@H](OC)C(=O)[C@H](C)C[C@H](C)/C=C/C=C/C=C(\C)C(OC[C@@H](O)c3ccccc3)C[C@@H]3CC[C@@H](C)[C@@](O)(O3)C(=O)C(=O)N3CCCCC3C(=O)O2)CC[C@H]1O (some centres unmarked) [Compound 217]	< 0.316	1000 to 10000
CO[C@@H]1C[C@H](C[C@@H](C)[C@@H]2CC(=O)[C@H](C)/C=C(\C)[C@@H](O)[C@@H](OC)C(=O)[C@H](C)C[C@H](C)/C=C/C=C/C=C(\C)C(OC3COC3)C[C@@H]3CC[C@@H](C)[C@@](O)(O3)C(=O)C(=O)N3CCCCC3C(=O)O2)CC[C@H]1O (some centres unmarked) [Compound 218]	0.316 to 3.16	> 10000
CO[C@@H]1C[C@H](C[C@@H](C)[C@@H]2CC(=O)[C@H](C)/C=C(\C)[C@@H](O)[C@@H](OC)C(=O)[C@H](C)C[C@H](C)/C=C/C=C/C=C(\C)C(OCCO)C[C@@H]3CC[C@@H](C)[C@@](O)(O3)C(=O)C(=O)N3CCCCC3C(=O)O2)CC[C@H]1O (stereo partly drawn) [Compound 219, (1R,9S,12S,15R,16E,18R,19R,21R,23S,24E,26E,28E,32S,35R)-1,18-dihydroxy-30-(2-hydroxyethoxy)-12-[(1R)-2-[(1S,3R,4R)-4-hydroxy-3-methoxy-cyclohexyl]-1-methyl-ethyl]-19-methoxy-15,17,21,23,29,35-hexamethyl-11,36-dioxa-4-azatricyclo[30.3.1.0^4,9]hexatriaconta-16,24,26,28-tetraene-2,3,10,14,20-pentone]	0.316 to 3.16	> 10000
COC1CC2CCC(C)C(O)(O2)C(=O)C(=O)N2CCCCC2C(=O)OC(C(C)CC2CCC(O[Si](C)(C)C(C)(C)C)C(OC)C2)CC(=O)C(C)C=C(C)C(O)C(OC)C(=O)C(C)CC(C)C=CC=CC=C1C (centres unmarked) [Compound 302]	> 3.16	1000 to 10000
COC1C[C@@H]2CC[C@@H](C)[C@@](O)(O2)C(=O)C(=O)N2CCCCC2C(=O)O[C@H]([C@H](C)C[C@@H]2CC[C@@H](OCCO)[C@H](OC)C2)CC(=O)[C@H](C)/C=C(\C)[C@@H](O)[C@@H](OC)C(=O)[C@H](C)C[C@H](C)/C=C/C=C/C=C/1C (some centres unmarked) [Compound 306]	< 0.316	< 1000
